Reference: publication PMC4102417 (PLoS Neglected Tropical Diseases, 2014)
Where a name gives a salt, the structure may show the parent alone.

Tests used:
[1] = tested on: T. cruzi (Tulahuen strain); experiment: microbe, parasite or virus in culture; format: cell-based, Trypanosoma cruzi; details: 10 uM, Table S2; for activity at 10 µM: Trypanosoma cruzi, TULAHUEN, Fibroblast, 120 h, read-out: T. cruzi % growth @ 10 uM (Amastigotes)
Method: Compounds were tested against T. cruzi (Tulahuen strain) stably expressing the beta-galactosidase gene as previously described. […] Fibroblasts were plated at a density of 2×10^3 per well in 96 well tissue culture plates. After 24 hours of incubation, 1×10^4 trypomastigotes/well were added to the fibroblasts and incubated for 4 hours before addition of the test compounds from the Spectrum Collection (10 µM final concentration). Cultures were incubated at 37°C for 5 days, then developed with chlorophenol red β-D-galactopyranoside as previously described. The percent inhibition is reported with standard deviation of the mean. […] Z-prime values were calculated for each 96-well plate based on positive (4 wells) and negative controls (4 wells).

3T3 fibroblast cells = experiment: in vitro; format: cell-based, murine; details: 10 uM, Table S2; for activity at 10 µM: Mus musculus, NIH3T3, 72 h, read-out: Mammalian (3T3) cell % growth at 10 uM

Molecule	T. cruzi % growth @ 10 uM (Amastigotes) [1]	Mammalian (3T3) cell % growth at 10 uM (3T3 fibroblast cells)	activity at 10 µM [1]	activity at 10 µM (3T3 fibroblast cells)
1-methyl-9H-pyrido[3,4-b]indol-7-ol hydrochloride [HARMOL]	4.4%	71.4%	–	–
CC1(C)C(=O)C2OC2C2(C)C1CC(O)C1(C)C2CCC2(C)C(c3ccoc3)OC(=O)C3OC321 (stereo not drawn) [1,2alpha-EPOXYDEACETOXYDIHYDROGEDUNIN, 7-(furan-3-yl)-20-hydroxy-1,8,12,17,17-pentamethyl-3,6,14-trioxahexacyclo[9.9.0.0^{2,4}.0^{2,8}.0^{12,18}.0^{13,15}]icosane-5,16-dione]	–	–	7.8%	77.3%
O=C(/C=C(/O)c1ccccc1)c1ccccc1O [2',beta-DIHYDROXYCHALCONE, (2E)-3-hydroxy-1-(2-hydroxyphenyl)-3-phenylprop-2-en-1-one]	–	–	10%	100%
COc1ccc(C(=O)c2ccc(O)cc2)c(O)c1O [2,3,4'-TRIHYDROXY-4-METHOXYBENZOPHENONE]	–	–	3.6%	86.8%
CCOc1ccc(C(=O)c2ccc(OC)c(O)c2O)cc1 [2,3-DIHYDROXY-4-METHOXY-4'-ETHOXYBENZOPHENONE]	–	–	9.1%	95.8%
Cc1[nH]c2ccccc2c1CN(C)C [2-METHYL GRAMINE]	–	–	20.8%	86.9%
COc1ccc(-c2cc(=O)c3ccccc3o2)cc1OC [3',4'-DIMETHOXYFLAVONE, 2-(3,4-dimethoxyphenyl)-4H-chromen-4-one]	–	–	24%	86.4%
O=c1c(O)c(-c2ccccc2)oc2cccc(O)c12 [3,5-DIHYDROXYFLAVONE]	–	–	12.3%	99.6%
COC(=O)C[C@H]1C(C)(C)[C@@H](O)[C@@H]2CC3=C4CC(O)O[C@@H](c5ccoc5)[C@]4(C)CCC3[C@@]1(C)C2=O (stereo partly drawn) [3,16-DIDEOXYMEXICANOLIDE-3beta-DIOL]	–	–	22.1%	99.8%
CC(=O)OC1CCC2(C)C(CC(OC(C)=O)C3(C)C4=CC(=O)OC(c5ccoc5)C4(C)CCC23)C1(C)C (stereo not drawn) [3-DEOXO-3beta-ACETOXYDEOXYDIHYDROGEDUNIN, 18-(acetyloxy)-6-(furan-3-yl)-1,7,11,15,15-pentamethyl-4-oxo-5-oxatetracyclo[8.8.0.0^{2,7}.0^{11,16}]octadec-2-en-14-yl acetate]	–	–	7.8%	100%
COc1ccc2c(c1)OC[C@@H](Cc1ccc(OC)c(OC)c1)[C@@H]2O [3-DESHYDRO[…] ETHER]	–	–	24.9%	80.4%
COc1ccc(-c2oc3ccccc3c(=O)c2O)cc1OC [3-HYDROXY-3',4'-DIMETHOXYFLAVONE]	–	–	5.2%	99.2%
O=c1c(O)c(-c2ccccc2)oc2ccccc12 [3-HYDROXYFLAVONE, 3-hydroxy-2-phenyl-4H-chromen-4-one]	–	–	4.1%	85.7%
C[C@@H]1CC[C@@]23CCC4(C)[C@@](C=CC5[C@@]6(C)CCC(=O)C(C)(C)C6CC[C@]54C)(OC2=O)C3[C@H]1C (stereo partly drawn) [3-OXOURSAN (28-13)OLIDE]	–	–	11.1%	100%
COc1ccc2c(c1)OCC(Cc1ccc(OC)c(OC)c1)C2=O (stereo not drawn) [3-[(3,4-dimethoxyphenyl)methyl]-7-methoxy-3,4-dihydro-2H-1-benzopyran-4-one]	–	–	8.3%	84.5%
CC(=O)O[C@H]1CC[C@]2(C)C(C[C@H](OC(C)=O)[C@]3(C)C4=CC(=O)OC(c5ccoc5)[C@@]4(C)CCC23)C1(C)C (stereo partly drawn) [3beta,7beta-[…]]	–	–	2.5%	72.2%
CC(=O)OC1CCC2(C)C(CC(OC(C)=O)C3(C)C2CCC2(C)C(c4ccoc4)OC(=O)C4OC423)C1(C)C (stereo not drawn) [3beta-ACETOXYDEOXODIHYDROGEDUNIN, 15-(acetyloxy)-7-(furan-3-yl)-1,8,12,16,16-pentamethyl-5-oxo-3,6-dioxapentacyclo[9.8.0.0^{2,4}.0^{2,8}.0^{12,17}]nonadecan-19-yl acetate]	–	–	7%	96.7%
COc1ccc(-c2cc(=O)c3ccccc3o2)cc1 [4'-METHOXYFLAVONE, 2-(4-methoxyphenyl)-4H-chromen-4-one]	–	–	18.7%	100%
CC(C)CCCC(C)C1CCC2C3CC(=O)C4CC(O)CCC4(C)C3CCC12C (stereo not drawn) [5alpha-CHOLESTAN-3beta-OL-6-ONE, 5-hydroxy-2,15-dimethyl-14-(6-methylheptan-2-yl)tetracyclo[8.7.0.0^{2,7}.0^{11,15}]heptadecan-8-one]	–	–	7.8%	100%
O=c1cc(-c2ccccc2)oc2c(O)c(O)ccc12 [7,8-DIHYDROXYFLAVONE, 7,8-dihydroxy-2-phenyl-4H-chromen-4-one]	–	–	1.3%	72.6%
CC(C)CCC[C@@H](C)[C@H]1CC[C@H]2[C@@H]3C(=O)C=C4C[C@@H](O)CC[C@]4(C)[C@H]3CC[C@]12C [7-OXOCHOLESTEROL, (1S,2R,5S,10S,11S,14R,15R)-5-hydroxy-2,15-dimethyl-14-[(2R)-6-methylheptan-2-yl]tetracyclo[8.7.0.0^{2,7}.0^{11,15}]heptadec-7-en-9-one]	–	–	23.4%	68.5%
COC(=O)C1(C)CCCC2(C)c3ccc(C(C)C)cc3C(=O)CC12 (stereo not drawn) [7-OXOC[…], METHYL ESTER, methyl 1,4a-dimethyl-9-oxo-7-(propan-2-yl)-1,2,3,4,4a,9,10,10a-octahydrophenanthrene-1-carboxylate]	–	–	5.1%	91.8%
COc1ccc(-c2cc(=O)c3c(O)cc(O)cc3o2)cc1 [ACACETIN, 5,7-dihydroxy-2-(4-methoxyphenyl)-4H-chromen-4-one]	–	–	23.1%	77.4%
CC(=O)[C@H]1CC[C@H]2[C@@H]3CC[C@H]4C[C@@H](O)CC[C@]4(C)[C@H]3CC[C@]12C [ALLOPREGNANOLONE, 1-[(1S,2S,5S,7S,10R,11S,14S,15S)-5-hydroxy-2,15-dimethyltetracyclo[8.7.0.0^{2,7}.0^{11,15}]heptadecan-14-yl]ethan-1-one]	–	–	3.7%	100%
Clc1ccc2c(c1)C(N1CCNCC1)=Nc1ccccc1O2 [AMOXAPINE, 13-chloro-10-(piperazin-1-yl)-2-oxa-9-azatricyclo[9.4.0.0^{3,8}]pentadeca-1(15),3,5,7,9,11,13-heptaene]	–	–	11.7%	98%
CCCCc1oc2ccccc2c1C(=O)c1cc(I)c(OCCN(CC)CC)c(I)c1 [Amiodarone, (2-{4-[(2-butyl-1-benzofuran-3-yl)carbonyl]-2,6-diiodophenoxy}ethyl)diethylamine hydrochloride]	–	–	–	86.7%
CN(C)CCCN1c2ccccc2CCc2ccc(Cl)cc21 [Clomipramine, (3-{5-chloro-2-azatricyclo[9.4.0.0^{3,8}]pentadeca-1(15),3,5,7,11,13-hexaen-2-yl}propyl)dimethylamine hydrochloride]	–	–	–	84.6%
CNCCC(Oc1ccc(C(F)(F)F)cc1)c1ccccc1 (stereo not drawn) [Fluoxetine, methyl({3-phenyl-3-[4-(trifluoromethyl)phenoxy]propyl})amine hydrochloride]	–	–	–	100%
CNC1CCC(c2ccc(Cl)c(Cl)c2)c2ccccc21 (stereo not drawn) [Sertraline, 4-(3,4-dichlorophenyl)-N-methyl-1,2,3,4-tetrahydronaphthalen-1-amine hydrochloride]	–	–	–	100%
